Data reported in patent US6509377B1, “Use of a 2-hydroxy-4-trifluoromethylbenzoic acid derivatives as inhibitors of the activation of the nuclear transcription factor NF-κB” (J. Uriach & Cia, S.A., priority 1999, dated 2003).

Assays:
[1] = tested on: VCAM-1; experiment: Expression of VCAM-1 mRNA induced by TNF-α in HUVEC (RT-PCR); format: cell-based, human; conditions: 4 mM, TNF-α 100 U/ml, one hour
Source text: (§1) Primers used for the detection of VCAM-1 mRNA by RT-PCR were designed from the human gene sequence (EMBUGenBank AC: M30257), using the Wisconsin Package Version 9.1, Genetics Computer Group (GCG), Madison, Wis. Their sequences were 5′-TGTCACTGTMGCTGCMG-3′ and 5′-TTCCAGCCTGGTTAATTC-3′, corresponding to nucleotides 1090-1108 and 1589-1572 (L. Osbom et al., Cell 1989, 59(6), 1203-1211). Total RNA was extracted from cultured cells using the guanidium isothiocyanate method (P. Chomczynski and N. Sacchi, Anal Biochem. 1987, 162(1), 156-159). cDNA first strand was synthesized from total RNA by reverse transcription reaction. […] The relative amounts of each amplified cDNA were determined by measuring the density of the bands stained with ethidium bromide using the Gel Doc documentation system and the Molecular Analyst software from Bio-Rad Laboratories, Hercules, Calif. […]
(§2) Specifically, the effect of Triflusal (4 mM) and HTB (4 mM) on the regulation of the expression of VCAM-1 mRNA induced by TNF-α (100 U/ml) in HUVEC was studied. […] The PCR products were separated by electrophoresis in a 1.8% agarose gel and were later quantified. The molecular weight of the amplification products was determined from the electrophoretic migration of DNA size standards.

[2] = tested on: β-actin; experiment: Expression of β-actin mRNA in HUVEC (RT-PCR, constitutive control gene); format: cell-based, human; conditions: 4 mM
Source text: as §1, §2

[3] = tested on: iNOS; experiment: iNOS expression measured as nitrite production induced by immune complexes in rat peritoneal macrophages; format: cell-based; conditions: Peritoneal macrophage, 100 μg/ml IgG/ovalbumin, nitrite after 24 hours, mean ± SEM, read-out: IC50, production of nitrite (NO) induced by immune complexes
Experimental: Rat peritoneal cells were obtained and resuspended in DMEM culture medium in the absence of serum and supplemented with antibiotics. Macrophages were isolated by their ability to adhere to culture plates following incubation for 2 hours at 37° C. Non-adherent cells were removed and it was then checked that more than 95% of the adherent cells were macrophages, as assessed by their ability to engulf zymosan particles and nonspecific esterase staining. Culture plates were kept at 37° C. under a 5% CO2 atmosphere, and the peritoneal macrophages adhered to the plates were incubated with 100 μg/ml IgG/ovalbumin immune complexes in the presence or absence (Control) of triflusal or HTB (0.1-20 mM, both). Drugs were added 10 minutes before the addition of IgG/ovalbumin and the production of NO was determined as the nitrite present after 24 hours.
iNOS expression was indirectly measured as the production of NO. NO released from macrophage cultures was determined indirectly by the accumulation of nitrites. […] 50 μl naphthylenediamine (1 mM final concentration) were added and after 15 minutes of incubation the absorbance of the sample was measured at 548 nm and was compared with a NaNO2 standard. The production of NO was expressed as nmol NO2^−/mg protein.

[4] = tested on: cocultures of rat neurons and astrocytes; experiment: Neuronal cell death in cocultures of neurons and astrocytes induced by oxygen-glucose deprivation (OGD); format: cell-based; conditions: 4 h OGD, 24-hour recovery; triflusal 10 and 30 μg/ml; HTB 20 and 100 μg/ml
Experimental: To carry out this study, an in vitro model of neuronal ischemia based on cocultures of neurons and glial cells was used. Primary cultures of type 1 astrocytes were prepared from 1-day old Wistar rats. Astrocytes were plated onto 60 mm, poly-D-lysine-coated plates. These cells were allowed to grow until they were confluent (about 11 days) and then rat primary neurons were plated onto them and were allowed to grow for 10 days. In addition, separate cultures of each one of the two types of cells were prepared.
Half of the cultures were exposed for four hours to oxygenlucose deprivation (OGD), followed by a 24-hour recovery period. Both the cells exposed to OGD and control cells, were treated at the start of OGD with 0, 10 and 30 μg/ml triflusal in a series of experiments and with 0, 20 and 100 μg/ml HTB in another series. After the 24-hour recovery period, the release of lactate dehydrogenase (LDH) into the medium was determined as a measure of cellular death, as well as the degree of apoptosis in the cultures (using the TUNEL assay) and total neuron and astrocyte counts present in the coculture (using Hoescht staining).

[5] = tested on: NF-κB; experiment: Activation of NF-κB induced by immune complexes in rat peritoneal macrophages (EMSA); format: cell-based; conditions: 4 mM, 100 μg/ml IgG/ovalbumin, 2 hours
Experimental: Rat peritoneal cavity cells were extracted and resuspended in DMEM culture medium in the absence of serum previously supplemented with 100 U/ml penicillin, 100 μg/ml streptomycin, 50 μg/ml gentamycin, 2 mM glutamine and 0.5 mM L-arginine. Cells were incubated for 2 hours in culture plates at 37° C. and those which had not adhered to the plates were removed by washing three times with the same fresh medium. More than 95% of the adherent cells were macrophages, as assessed by their ability to engulf zymosan particles and nonspecific esterase staining. Macrophages were kept at 37° C. under a 5% CO2 atmosphere and two hours later non-adherent cells were removed and the peritoneal macrophages adhered to the plates were incubated with 100 μg/ml IgG/ovalbumin immune complexes prepared from; rabbit antiserum for 2 hours in the presence or absence (vehicle) of triflusal or HTB (4 mM, both).
After incubation, macrophages were washed twice with PBS and the degree of activation (binding to DNA) of the transcription factor NF-κB was determined using the EMSA assay, described in detail in Example 1.

| SMILES | inhibition of the expression of VCAM-1 mRNA induced by TNF-α [1] | effect on the expression of β-actin mRNA [2] | IC50 [3] | increase in LDH release induced by OGD [4] | increase in number of apoptotic neurons induced by OGD (TUNEL) [4] | inhibition of the activation of NF-κB induced by immune complexes [5] |
| --- | --- | --- | --- | --- | --- | --- |
| O=C(O)c1ccc(C(F)(F)F)cc1O [HTB, 2-hydroxy-4-trifluoromethylbenzoic acid] | completely inhibit | absence of effect | 1840 ± 340 µM | completely inhibited | completely inhibited | markedly inhibit |
| CC(=O)Oc1cc(C(F)(F)F)ccc1C(=O)O [triflusal, 2-Acetyloxy-4-trifluoromethylbenzoic acid, reference compound] | completely inhibit | absence of effect | 1130 ± 120 µM | completely inhibited | completely inhibited | markedly inhibit |
